Results from ChEMBL document CHEMBL1149696, “Synthesis and antibacterial activity of C11, C12-cyclic urea analogues of ketolides” (2007).
Values after ≈ are worked out from the molar mass of the structure shown.

Tests used:
Type in all cases: functional
Streptococcus pyogenes [1] = assay: Antibacterial activity against erm containing Streptococcus pyogenes 1079
Streptococcus pneumoniae [2] = assay: Antibacterial activity against erm containing Streptococcus pneumoniae 1095
Streptococcus pyogenes [3] = assay: Antibacterial activity against erythromycin susceptible Streptococcus pyogenes 203
Streptococcus pneumoniae [4] = assay: Antibacterial activity against erythromycin susceptible Streptococcus pneumoniae 1016
Haemophilus influenzae [5] = assay: Antibacterial activity against Haemophilus influenzae 1218
Streptococcus pneumoniae [6] = assay: Antibacterial activity against mef containing Streptococcus pneumoniae 1175
Staphylococcus aureus [7] = assay: Antibacterial activity against erm containing Staphylococcus aureus 1095
Staphylococcus aureus [8] = assay: Antibacterial activity against erythromycin susceptible Staphylococcus aureus 1146
Haemophilus influenzae [9] = assay: Antibacterial activity against Haemophilus influenzae 1100
Staphylococcus aureus [10] = assay: Antibacterial activity against erm containing Staphylococcus aureus 1117
Staphylococcus aureus [11] = assay: Antibacterial activity against erythromycin susceptible Staphylococcus aureus 0052

SMILES	MIC (Streptococcus pyogenes [1]) [µg/mL]	MIC (Streptococcus pneumoniae [2]) [µg/mL]	MIC (Streptococcus pyogenes [3]) [µg/mL]	MIC (Streptococcus pneumoniae [4]) [µg/mL]	MIC (Haemophilus influenzae [5]) [µg/mL]	MIC (Streptococcus pneumoniae [6]) [µg/mL]	MIC (Staphylococcus aureus [7]) [µg/mL]	MIC (Staphylococcus aureus [8]) [µg/mL]	MIC (Haemophilus influenzae [9]) [µg/mL]	MIC (Staphylococcus aureus [10]) [µg/mL]	MIC (Staphylococcus aureus [11]) [µg/mL]
CC[C@H]1OC(=O)[C@@](C)(F)C(=O)[C@H](C)[C@@H](O[C@@H]2O[C@H](C)C[C@H](N(C)C)[C@H]2O)[C@@](C)(OC)C[C@@H](C)C(=O)[C@H](C)[C@H]2N(C/C=C/Cn3cnc(-c4cccnc4)c3)C(=O)N(C)[C@]12C	4 (≈ 4.76 µM)	0.063 (≈ 0.0749 µM)	0.063 (≈ 0.0749 µM)	0.063 (≈ 0.0749 µM)	1 (≈ 1.19 µM)	0.063 (≈ 0.0749 µM)	64 (≈ 76.1 µM)	0.063 (≈ 0.0749 µM)	–	–	–
CC[C@H]1OC(=O)[C@@](C)(F)C(=O)[C@H](C)[C@@H](O[C@@H]2O[C@H](C)C[C@H](N(C)C)[C@H]2O)[C@@](C)(OC)C[C@@H](C)C(=O)[C@H](C)[C@H]2N(C/C=C/Cn3cnc4cccnc43)C(=O)N[C@]12C	2 (≈ 2.5 µM)	0.063 (≈ 0.0787 µM)	0.063 (≈ 0.0787 µM)	0.063 (≈ 0.0787 µM)	0.5 (≈ 0.624 µM)	0.25 (≈ 0.312 µM)	64 (≈ 79.9 µM)	0.063 (≈ 0.0787 µM)	–	–	–
CC[C@H]1OC(=O)[C@@](C)(F)C(=O)[C@H](C)[C@@H](O[C@@H]2O[C@H](C)C[C@H](N(C)C)[C@H]2O)[C@@](C)(OC)C[C@@H](C)C(=O)[C@H](C)[C@H]2N(CCCCn3cnc(-c4cccnc4)c3)C(=O)N(C)[C@]12C	8 (≈ 9.49 µM)	0.025 (≈ 0.0297 µM)	0.024 (≈ 0.0285 µM)	0.013 (≈ 0.0154 µM)	–	0.2 (≈ 0.237 µM)	–	–	2 (≈ 2.37 µM)	100 (≈ 119 µM)	0.024 (≈ 0.0285 µM)
C=CCN1C(=O)N(CCCCn2cnc(-c3cccnc3)c2)[C@@H]2[C@@H](C)C(=O)[C@H](C)C[C@](C)(OC)[C@H](O[C@@H]3O[C@H](C)C[C@H](N(C)C)[C@H]3O)[C@@H](C)C(=O)[C@](C)(F)C(=O)O[C@H](CC)[C@]21C	64 (≈ 73.6 µM)	0.05 (≈ 0.0575 µM)	0.012 (≈ 0.0138 µM)	0.025 (≈ 0.0288 µM)	–	0.39 (≈ 0.449 µM)	–	–	0.5 (≈ 0.575 µM)	100 (≈ 115 µM)	0.049 (≈ 0.0564 µM)
CC[C@H]1OC(=O)[C@@](C)(F)C(=O)[C@H](C)[C@@H](O[C@@H]2O[C@H](C)C[C@H](N(C)C)[C@H]2O)[C@@](C)(OC)C[C@@H](C)C(=O)[C@H](C)[C@H]2N(C/C=C/Cn3cnc4cccnc43)C(=O)N(C)[C@]12C	2 (≈ 2.45 µM)	0.063 (≈ 0.0773 µM)	0.063 (≈ 0.0773 µM)	0.063 (≈ 0.0773 µM)	0.25 (≈ 0.307 µM)	0.13 (≈ 0.16 µM)	64 (≈ 78.5 µM)	0.063 (≈ 0.0773 µM)	–	–	–
CC[C@H]1OC(=O)[C@H](C)C(=O)[C@H](C)[C@@H](O[C@@H]2O[C@H](C)C[C@H](N(C)C)[C@H]2O)[C@](C)(OC)C[C@@H](C)C(=O)[C@H](C)[C@H]2N(CCCCn3cnc(-c4cccnc4)c3)C(=O)O[C@]12C [TELITHROMYCIN]	32 (≈ 39.4 µM)	0.05 (≈ 0.0616 µM)	0.012 (≈ 0.0148 µM)	0.013 (≈ 0.016 µM)	0.5 (≈ 0.616 µM)	0.13 (≈ 0.16 µM)	64 (≈ 78.8 µM)	0.063 (≈ 0.0776 µM)	0.5 (≈ 0.616 µM)	100 (≈ 123 µM)	0.049 (≈ 0.0603 µM)
C/C=C/CN1C(=O)N(CCCCn2cnc(-c3cccnc3)c2)[C@@H]2[C@@H](C)C(=O)[C@H](C)C[C@](C)(OC)[C@H](O[C@@H]3O[C@H](C)C[C@H](N(C)C)[C@H]3O)[C@@H](C)C(=O)[C@](C)(F)C(=O)O[C@H](CC)[C@]21C	32 (≈ 36.2 µM)	0.1 (≈ 0.113 µM)	0.049 (≈ 0.0555 µM)	0.05 (≈ 0.0566 µM)	–	0.39 (≈ 0.442 µM)	–	–	0.25 (≈ 0.283 µM)	100 (≈ 113 µM)	0.098 (≈ 0.111 µM)
CC[C@H]1OC(=O)[C@H](C)C(=O)[C@H](C)[C@@H](O[C@@H]2O[C@H](C)C[C@H](N(C)C)[C@H]2O)[C@@](C)(OC)C[C@@H](C)C(=O)[C@H](C)[C@H]2N(C/C=C/Cn3cnc(-c4cccnc4)c3)C(=O)N[C@]12C	32 (≈ 39.6 µM)	0.063 (≈ 0.0779 µM)	0.063 (≈ 0.0779 µM)	0.063 (≈ 0.0779 µM)	2 (≈ 2.47 µM)	4 (≈ 4.94 µM)	64 (≈ 79.1 µM)	0.25 (≈ 0.309 µM)	–	–	–
CC[C@H]1OC(=O)[C@@](C)(F)C(=O)[C@H](C)[C@@H](O[C@@H]2O[C@H](C)C[C@H](N(C)C)[C@H]2O)[C@@](C)(OC)C[C@@H](C)C(=O)[C@H](C)[C@H]2N(C/C=C/Cn3cnc(-c4cccnc4)c3)C(=O)N[C@]12C	4 (≈ 4.84 µM)	0.063 (≈ 0.0762 µM)	0.063 (≈ 0.0762 µM)	0.063 (≈ 0.0762 µM)	0.5 (≈ 0.605 µM)	0.25 (≈ 0.302 µM)	64 (≈ 77.4 µM)	0.063 (≈ 0.0762 µM)	–	–	–
CC/C=C/CN1C(=O)N(CCCCn2cnc(-c3cccnc3)c2)[C@@H]2[C@@H](C)C(=O)[C@H](C)C[C@](C)(OC)[C@H](O[C@@H]3O[C@H](C)C[C@H](N(C)C)[C@H]3O)[C@@H](C)C(=O)[C@](C)(F)C(=O)O[C@H](CC)[C@]21C	64 (≈ 71.3 µM)	0.1 (≈ 0.111 µM)	0.098 (≈ 0.109 µM)	0.05 (≈ 0.0557 µM)	–	0.78 (≈ 0.869 µM)	–	–	0.5 (≈ 0.557 µM)	100 (≈ 111 µM)	0.098 (≈ 0.109 µM)
CC[C@H]1OC(=O)[C@H](C)C(=O)[C@H](C)[C@@H](O[C@@H]2O[C@H](C)C[C@H](N(C)C)[C@H]2O)[C@@](C)(OC)C[C@@H](C)C(=O)[C@H](C)[C@H]2N(C/C=C/Cn3cnc4cccnc43)C(=O)N[C@]12C	16 (≈ 20.4 µM)	0.063 (≈ 0.0805 µM)	0.063 (≈ 0.0805 µM)	0.063 (≈ 0.0805 µM)	1 (≈ 1.28 µM)	1 (≈ 1.28 µM)	64 (≈ 81.7 µM)	0.13 (≈ 0.166 µM)	–	–	–
CC[C@H]1OC(=O)[C@@](C)(F)C(=O)[C@H](C)[C@@H](O[C@@H]2O[C@H](C)C[C@H](N(C)C)[C@H]2O)[C@@](C)(OC)C[C@@H](C)C(=O)[C@H](C)[C@H]2N(CCCCn3cnc(-c4cccnc4)c3)C(=O)N[C@]12C	4 (≈ 4.82 µM)	0.012 (≈ 0.0145 µM)	0.006 (≈ 0.00724 µM)	0.006 (≈ 0.00724 µM)	–	0.78 (≈ 0.941 µM)	–	–	2 (≈ 2.41 µM)	100 (≈ 121 µM)	0.049 (≈ 0.0591 µM)
CC[C@H]1OC(=O)[C@H](C)C(=O)[C@H](C)[C@@H](O[C@@H]2O[C@H](C)C[C@H](N(C)C)[C@H]2O)[C@@](C)(OC)C[C@@H](C)C(=O)[C@H](C)[C@H]2N(CCCCn3cnc(-c4cccnc4)c3)C(=O)N[C@]12C	32 (≈ 39.5 µM)	0.049 (≈ 0.0604 µM)	0.024 (≈ 0.0296 µM)	0.024 (≈ 0.0296 µM)	–	6.3 (≈ 7.77 µM)	–	–	8 (≈ 9.86 µM)	100 (≈ 123 µM)	0.039 (≈ 0.0481 µM)
CC[C@H]1OC(=O)[C@@](C)(F)C(=O)[C@H](C)[C@@H](O[C@@H]2O[C@H](C)C[C@H](N(C)C)[C@H]2O)[C@@](C)(OC)C[C@@H](C)C(=O)[C@H](C)[C@H]2N(CCCCn3cnc(-c4cccnc4)c3)C(=O)N(CC)[C@]12C	32 (≈ 37.3 µM)	0.025 (≈ 0.0292 µM)	0.024 (≈ 0.028 µM)	0.013 (≈ 0.0152 µM)	–	0.39 (≈ 0.455 µM)	–	–	0.25 (≈ 0.292 µM)	100 (≈ 117 µM)	0.049 (≈ 0.0572 µM)
